Source: patent publication US12296027B2, “Molecular renal probes for detecting acute kidney injury” (Nanyang Technological University, priority 2019, dated 2025)
Like-named read-outs stand apart in the source and are kept apart here.

Experiments:
[1] = Determination of GFR by FITC-inulin method in drug-treated mice; format: in vivo
Protocol: FITC-inulin (150 mg) was dissolved in 0.9% NaCl (3 ml) at 75° C. and dialysed in 0.9% NaCl (1000 ml) at room temperature for 24 h. Dialysed FITC-inulin (3.74 μl g^−1 […]), or at t=24, 36, 48, 96, or 144 h post-treatment of gentamicin (100 mg kg^−1 day^−1 body weight), or at t=2, 8, 16, 24, or 48 h post-treatment of diatrizoate (1000 mg kg^−1 body weight), or saline (0.2 ml) treated mice. Blood (approximately 20 μl) was collected via saphenous vein at 3, 7, 10, 15, 35, 55, and 75 min post-injection of FITC-inulin, and then centrifuged for 20 min at 3500 r.p.m. Serum sample (10 μl) was diluted with HEPES buffer (40 μl, 500 mM, pH 7.4) and fluorescence was measured using spectramax with excitation at 485 nm and emission at 538 nm. Serum fluorescence data were presented as a two-component exponential decay curve using nonlinear regression (3 mice were analysed for each sample). GFR was calculated according to the equation (Z. Qi, et al., Am. J. Physiol. Renal. Physiol. 2004, 286, F590-596): […], where I is the amount of FITC-inulin delivered by the bolus injection, A and B are the y-intercept values of the two decay rates, and α and β are the decay constants for the distribution and elimination phases, respectively.
FITC-inulin (150 mg) was dissolved in 0.9% NaCl (3 ml), heated at 75° C. and dialysed in 0.9% NaCl (1000 ml) at room temperature for 24 h. Dialysed FITC-inulin (3.74 μl g^−1 body weight) was i.v. injected into living mice at =2, 8, 16, 24, or 48 h post-treatment of diatrizoate (1 g kg^−1 body weight), or PBS (0.2 ml) treated mice, or NAC/DTZ co-treated mice. Blood (approximately 20 μl) was collected via tail vein at 3, 7, 10, 15, 35, 55, and 75 min post-injection of FITC-inulin, and then centrifuged for 15 min at 4500 r.p.m. Serum sample (10 μl) was diluted with PBS buffer (40 μl, 10 mM, pH 7.4) and fluorescence was measured using spectramax with excitation at 485 nm and emission at 538 nm. Serum fluorescence data were presented as a two-component exponential decay curve using nonlinear regression (3 mice were analysed for each sample). GFR was calculated according to the equation: […], where 1 is the amount of FITC-inulin delivered by the bolus injection, A and B are the y-intercept values of the two decay rates, and α and β are the decay constants for the distribution and elimination phases, respectively.

[2] = Commercial assays of serum and urinary kidney injury biomarkers in drug-treated mice; format: in vivo
Protocol: Urine was collected using metabolic cages from drug-treated mice at different timepoints post-treatment of drug. The collected urine samples were centrifuged at 4500 r.p.m. for 8 min and filtered by 0.22 μm syringe filter. MRPs1-3 solutions (30 μM) in PBS buffer (10 mM, pH 7.4) were incubated with the urine (100 μl) at 37° C., followed by fluorescence measurements on fluorescence spectrophotometer after 2 h incubation (9 mice were analysed for each sample). Urinary TFF3, osteopontin, NGAL, β2-Microglobulin, KIM-1, clusterin levels were quantified using ELISA kits according to the manufacturer's protocol (6 mice were analysed for each sample).
Blood was collected from the tail vein in living NCr nude mice under isoflurane anesthesia at t=8, 12, 16, 24, or 48 h post-treatment of cisplatin (20 mg kg^−1 body weight), or at t=24, 48, 72, 96, or 144 h post-treatment of gentamicin (100 mg kg^−1 day^−1 body weight), or at t=2, 8, 16, 24, or 48 h post-treatment of diatrizoate (1000 mg kg^−1 body weight), or saline (0.2 ml) treated mice. The collected blood samples were centrifuged for 20 min at 3500 r.p.m. Serum creatinine, BUN and cystatin C were determined using commercial kits according to the manufacturer's protocol (5 mice were analysed for each sample).
Blood was collected from the tail vein in living mice under isoflurane anesthesia at t=2, 8, 16, 24 or 48 h post-treatment of diatrizoate (1 g kg^−1 body weight), or PBS treated mice, or NAC/DTZ co-treated mice. The collected blood samples were centrifuged for 15 min at 4500 r.p.m. Serum creatinine and BUN were determined using commercial kits according to the manufacturer's protocol (3 mice were analysed for each sample).

[3] = cited from earlier work
[4] = at first significant timepoint, initial studies
[5] = at first significant timepoint, subsequent studies

| Molecule | decrease in GFR at timepoint of sCr/BUN increase ([1]; mouse, in vivo) | time of first statistically significant change of urinary NGAL and trefoil factor-3 ([2]; mouse, in vivo) | time of first statistically significant increase of urinary KIM-1 and clusterin ([2]; mouse, in vivo) | time of statistically significant change of urinary osteopontin ([2]; mouse, in vivo) | time of statistically significant change of urinary β2-microglobulin ([2]; mouse, in vivo) | time of statistically significant increase of sCr and BUN after treatment ([2]; mouse, in vivo) | urinary KIM-1 increase ([2]; mouse, in vivo) | urinary NGAL change ([2]; mouse, in vivo) | urinary NGAL change, alternative value ([2]; mouse, in vivo) | urinary clusterin increase ([2]; mouse, in vivo) | urinary osteopontin change ([2]; mouse, in vivo) | urinary trefoil factor-3 change ([2]; mouse, in vivo) | urinary β2-microglobulin change ([2]; mouse, in vivo) | further results |
| --- | --- | --- | --- | --- | --- | --- | --- | --- | --- | --- | --- | --- | --- | --- |
| CC(=O)Nc1c(I)c(NC(C)=O)c(I)c(C(=O)O)c1I [diatrizoate] | ~50% | 24 h | 24 h | 24 h | 48 h | 24 h | 3.7 fold | 2.3 fold | 2.05 fold | 3.0 fold | 2.3 fold | 0.5 fold | 3.6 fold | decrease in GFR at 24 h post-treatment ([1]; mouse, in vivo): ~40%; decrease in GFR at 48 h post-treatment ([1]; mouse, in vivo): ~60%; BUN relative to control groups ([2]; mouse, in vivo): 1.8 fold; sCr relative to control groups ([2]; mouse, in vivo): 1.7 fold |
| CNC(=O)CN(CCN(CCN(CC(=O)[O-])CC(=O)NC)CC(=O)[O-])CC(=O)[O-].[Gd+3] [Gd-DTPA-BMA] | – | – | – | – | – | – | – | – | – | – | – | – | – | Renal clearance efficiency ([3]; in 24 h, S.D Rats): 95% in 24 h |
| CC(=O)N(CC(O)CO)c1c(I)c(C(=O)NCC(O)CO)c(I)c(C(=O)NCC(O)CO)c1I (stereo not drawn) [Iohexol] | – | – | – | – | – | – | – | – | – | – | – | – | – | Renal clearance efficiency ([3]; in 4 h, S.D rats): 59.7% in 4 h |
| gentamicin | – | 96 h | 72 h | 144 h | 144 h | – | – | – | – | – | – | – | – | decrease in GFR at timepoint of sCr/BUN increase ([1]; 72 h cisplatin, 144 h gentamicin, 24 h diatrizoate): ~50%; urinary KIM-1 increase ([2]; at first significant timepoint): 2.2 fold; urinary NGAL change ([2]; at first significant timepoint): 2.0 fold; urinary NGAL change, alternative value ([2]; at first significant timepoint): 1.98 fold; urinary clusterin increase ([2]; at first significant timepoint): 3.5 fold; urinary osteopontin change ([2]; at first significant timepoint): 2.3 fold; urinary trefoil factor-3 change ([2]; at first significant timepoint): 0.3 fold; urinary β2-microglobulin change ([2]; at first significant timepoint): 3.2 fold; BUN increase [2, 4]: 2.23 fold; sCr increase [2, 4]: 2.82 fold; BUN increase [2, 5]: 2.4 fold; sCr increase [2, 5]: 2.9 fold; time of statistically significant increase of sCr and BUN after treatment ([2]; nephrotoxic dose, mice): 144 h |
| N.N.[Cl][Pt][Cl] [cisplatin] | ~50% | 48 h | 24 h | 72 h | 72 h | 72 h | 1.9 fold | 2.7 fold | 2.72 fold | 4.1 fold | 2.3 fold | 0.4 fold | 3.9 fold | time of increase of serum Cystatin C ([2]; mouse, in vivo): 48 h |
| CNC(=O)c1c(I)c(NC(C)=O)c(I)c(C(=O)O)c1I [Iothalamate] | – | – | – | – | – | – | – | – | – | – | – | – | – | Renal clearance efficiency ([3]; in 24 h, S.D rat): 93.5% ID in 24 h |
